The test system of the experiment is lung tumors in Grg1 transgenic mice. Kind of experiment: Tumor development in Grg1 transgenic mouse model of non-small cell lung cancer. Conditions: for tumors visible on whole lung lobes: 3 month mice after 4 weeks of treatment (FIG. 8); for average number of surface tumors per mouse: abexinostat 12 mg/kg BID i.p., ibrutinib ~22 mg/kg/day in drinking water; for tumor histology in lung tissue sections: 6 month mice after 4 weeks of treatment; for tumors visible on whole left lung lobes: 6 month mice after 4 weeks of treatment (FIG. 7); for average number of large tumors (over 1 mm in diameter) per mouse: 6 month samples, tissue sections of left lung lobe. Type of experiment: in vivo. The protocol: The aim of the experiment is to evaluate the effect of two drugs on tumor development in a mouse model of non-small cell lung cancer.
Grg1 transgenic mice were used to evaluate the drugs. Grg1 transgenic mice overexpress the Groucho-related gene 1 (Grg1). The mice develop lung tumors that resemble human non-small cell lung cancer. Tumors initiate at 1 month of age and progress to invasive adenocarcinoma by 8 months of age. The drugs were administered to 2 month-old mice or to 5 month-old mice, and mice were treated for 4 weeks. The former group is referred to as the 3 month samples and the latter as the 6 month samples.
Mice were bred to generate double transgenic (Grg1/Cre recombinase) mice on a CD1 background. Four groups of female double transgenic mice were established:
At least 8 mice in each group were treated at 2 months old and 8 mice in each group were treated at 5 months old. Treatments lasted 4 weeks, and mice were sacrificed at 3 months and 6 months. Therefore samples are referred to as 3 month samples or 6 month samples.
Abexinostat was administered by intraperitoneal (i.p.) injection, twice per day for five days each week. Mice were weighed and injected with 6 μl per gram body weight of a 1 mg/ml solution. The dosage was 12 mg/kg BID.
Mice were treated for 4 weeks. After treatment, mice were euthanized and lung tissue was examined.
For quantitation of tumors, the total visible tumors on the lung surface were counted using a dissecting microscope. In addition, the left lung lobe was fixed in 4% PFA, paraffin-embedded and 5 μm sections were taken for 100 μm at two levels. The first level began 30 μm below the lung surface and the second level began 130 μm below the lung surface. Alternate slides were H&E stained, and tumors were detected and counted using a dissecting microscope. Tumor diameter was measured using an inverted microscope and reticule.

The mark [1] stands for this setting: 3 month samples: treated 4 weeks from 2 months.
[2] abbreviates: 6 month samples: treated 4 weeks from 5 months.

The structures appear in SMILES notation. “Also recorded” adds a separate entry of the source.

Data on 2 molecules can be found in US9421208B2, “Methods for the treatment of solid tumors” (Pharmacyclics LLC, priority 2013, dated 2016).

On to `CN(C)Cc1c(C(=O)NCCOc2ccc(C(=O)NO)cc2)oc2ccccc12` [Abexinostat, 3-[(dimethylamino)methyl]-N-{2-[4-(hydroxycarbamoyl)phenoxy]ethyl}-1-benzofuran-2-carboxamide], for which the “tumors visible on whole lung lobes” value is recorded as “one small tumor is visible”; the “tumor histology in lung tissue sections” value is “high number of apoptotic cells; also recorded: lymphocyte infiltration, necrosis and large areas with apoptotic cells”; the “tumors visible on whole left lung lobes” value was “medium and small tumors are visible”; the “average number of large tumors (over 1 mm in diameter) per mouse” value worked out at 0.5. For the same molecule, under setting [1], the “average number of surface tumors per mouse” value came to 3.0. In addition, the “average number of surface tumors per mouse” value under setting [2] was determined as 4.6.
For the molecule `C=CC(=O)N1CCC[C@@H](n2nc(-c3ccc(Oc4ccccc4)cc3)c3c(N)ncnc32)C1` [Ibrutinib, (R)-1-(3-(4-amino-3-(4-phenoxyphenyl)-1H-pyrazolo[3,4-d]pyrimidin-1-yl)piperidin-1-yl)prop-2-en-1-one], the “tumors visible on whole lung lobes” value is listed as “one small tumor is visible”; the “tumor histology in lung tissue sections” value was “lack the high number of apoptotic macrophages; also recorded: less tumor necrosis than the control samples; also recorded: lymphocyte infiltration but not the apoptotic macrophages seen in the control and in Abexinostat-treated mice”; the “tumors visible on whole left lung lobes” value is “medium and small tumors are visible”; the “average number of large tumors (over 1 mm in diameter) per mouse” value turned out to be 0.5. Under setting [1], the “average number of surface tumors per mouse” value is on record as 2.6. The “average number of surface tumors per mouse” value under setting [2] was determined as 7.6. For the same molecule, the “tumor diameter in 6 month sections” value (6 month sections (FIG. 9)) is “no small tumors in Ib-treated sections, just one large tumor”.
